Consider 1 compound from patent US4448714A, “Antibiotic polypeptide compounds prepared from staphlococcus bacteria” (priority 1979, dated 1984).

For this assay, the system named is S. Epidermidis NCIB 11536. Nature of the assay: Antibiotic sensitivities of the producer strain (disc). In kind it is cell-based. The following applies: 5 μg disc; strain characteristics table.

For the compound `CO[C@@H]1[C@@H](OC(N)=O)[C@@H](O)[C@H](Oc2ccc3c(O)c(NC(=O)c4ccc(O)c(CC=C(C)C)c4)c(=O)oc3c2C)OC1(C)C` [novobiocin], the Novobiocin sensitivity result was “sensitive”.
